Assay results published in patent US20150004237A1, “CELLULOSE DERIVATIVES FOR INHIBITING CRYSTALLIZATION OF POORLY WATER-SOLUBLE DRUGS” (Virginia Tech Intellectual Properties, Inc., priority 2012, published 2015).
Values after ≈ are worked out from the molar mass of the structure shown. Values joined by “and” are separate entries in the source; they are usually repeats but may differ in a detail not shown here. Identical values can stand only once. Like-named read-outs stand apart in the source and are kept apart here. Values belong to the compound of their own block, whether it stands above or below them.

Key:
[1] = cited from earlier work
[2] = Ellagic acid release profile; assay type: physicochemical; details: pH 6.8 buffer
[3] = Quercetin release profile; assay type: physicochemical; details: pH 6.8 buffer, Que 0.07 mg/mL
Description: In the measurement of drug release profiles, maximum Que concentration was fixed at 0.07 mg/mL in pH 6.8 buffer solution. The UV-vis absorption of the solution was measured and plotted vs. time. Release profiles were determined.

[4] = Formation of X-ray amorphous resveratrol-polymer dispersion by rotary evaporation; assay type: physicochemical; details: classification system of Van Eerdenbrugh et al.
Description: All mixtures were visually inspected to confirm that the resveratrol and the polymers were fully dissolved, and that the systems formed uniform one-phase solutions. […] The samples were then placed under vacuum for 24 h to remove any residual solvents. The obtained material was subsequently cryomilled in a liquid nitrogen bath for a total milling time of 4 min. Powder X-Ray Diffraction. Immediately after cryomilling, the samples were analyzed using a Shimadzu XRD-6000 (Shimadzu Corporation, Kyoto, Japan) equipped with a Cu-Kα source and set in Bragg-Brentano geometry between 5° and 35° 2θ at 8°/min with a 0.04° step size. Samples were also analyzed over time following the storage treatments listed above. […] Samples where sharp peaks were observed were deemed crystalline, and those samples that lacked sharp peaks were labeled X-ray amorphous. Physical mixtures of select resveratrol-polymer systems were made to provide a fully crystallized reference. The percent crystallized for certain samples was estimated from a calibration curve generated from analysis of the diffraction patterns of the different solid dispersions, spiked with increasing levels of crystalline resveratrol. […] The crystallinity of these calibration samples was measured immediately after preparation.

[5] = Crystal growth rate of celecoxib (seeded desupersaturation); assay type: physicochemical; details: supersaturation ratio of 1.2
physchem = details: 37 °C, pH 6.8, aqueous buffer, thermodynamic from solid
[6] = Crystal growth rate of efavirenz (seeded desupersaturation); assay type: physicochemical; details: supersaturation ratio of 1.2
[7] = pH 6.8; cited from earlier work
[8] = Theoretical amorphous solubility with moisture sorption effect; assay type: physicochemical; details: 37° C.
From the text: Amorphous solubility can be approximated by estimating the free energy difference between crystalline and amorphous forms using the Hoffman equation: […]
The ratio of amorphous and crystalline solubility (Samorphous/Scrystalline) is then estimated from the free energy difference (ΔGa→σ) calculated from heat of fusion (ΔHf) and melting temperature (Tm) of the crystalline material determined from DSC analysis, as well as the experimentally determined crystalline solubility:
See Murdande, S. B., Pikal, M. J. Shanker, R. M. & Bogner, R. H., “Solubility Advantage of amorphous pharmaceuticals: I. A thermodynamic analysis,” J. Pharm. Sci., 99(3): 1254-1264, (2009) (“Murdande I”) and Murdande, S. B., Pikal, M. J. Shanker, R. M. & Bogner, R. H., “Solubility Advantage of amorphous pharmaceuticals: II. Application of quantitative thermodynamic relationships for prediction of solubility enhancement in structurally diverse insoluble pharmaceuticals,” Pharm. […]
The moisture sorption profile of amorphous ritonavir was determined at 37° C. using a TA Q5000 dynamic vapor sorption analyzer (TA Instruments, New Castle, Del.) equipped with a humidity controlled chamber and an ultrasensitive thermobalance. […] Subsequently, the moisture sorption isotherm was measured by equilibrating the sample under controlled relative humidity (RH) ranging from 5% RH to 95% RH, in 10% RH intervals. […]

[9] = Nucleation-induction time of ritonavir from supersaturated solution; assay type: physicochemical; details: initial 20 μg/mL, no polymer, pH 6.8, 37° C.
Description: The period between the generation of supersaturation and initiation of nucleation was determined by monitoring the absorbance at 280 nm using an ultraviolet/visible spectrometer, fiber optic coupled with a dip probe (SI Photonics® Tucson, Ariz.). Wavelength scans were acquired every 45 seconds. Precipitation was characterized by an increased extinction at 280 nm wavelength. A supersaturated solution of ritonavir was generated by adding 0.4 mL of ritonavir dissolved in methanol at a concentration 4 mg/mL, to 80 mL sodium phosphate buffer, pH 6.8, at 37° C., providing an initial solution concentration of ritonavir of 20 μg/mL. The drug of compositions of the invention can be present in any amount ranging from about 0-100 μg/mL, such as from about 5-10 μg/mL, or from 15-20 μg/mL, or from 25-30 μg/mL, or from 35-50 μg/mL, or from 55-75 μg/mL, or from 80-90 μg/mL. Depending on the drug compound and the types and amounts of polymers used, the most preferred concentration of drug in the compositions ranges from about 5-25 μg/mL. A syringe pump (Harvard Apparatus, Holliston, Mass.) was used to control the rate of addition of organic solution of ritonavir to buffer solution; the flow rate was 0.20 mL/min. […] The ability of the various polymers to affect the nucleation of ritonavir was evaluated using a polymer concentration of 5 μg/mL. […]

[10] = Crystal growth rate of ritonavir (seeded desupersaturation); assay type: physicochemical
[11] = Ritonavir seed crystal size and morphology by SEM; assay type: physicochemical; details: After Crystal Growth (S = 15.4)
From the text: Characterization of Seed Crystals. Ritonavir seed crystals were characterized using scanning electron microscopy (SEM), powder X-ray diffraction analysis (PXRD), and differential scanning calorimetry (DSC). SEM was used to determine the size and shape of ritonavir crystals, while PXRD and DSC were used to evaluate the polymorph of the seed crystals. Ritonavir was used as received from the manufacturer, and prior to use, the seeds were sieved to a size below 250 p.m. Seed crystals used for SEM analysis were prepared by dispersing the seeds in water and equilibrating the water-seed crystal suspension for approximately 24 h. A few drops of the suspension were placed on a glass slide and dried overnight in a vacuum oven at room temperature for approximately 24 h. Before SEM imaging, the glass slides were mounted using double-sticky copper tape and sputter-coated with platinum for 60 s. SEM imaging was performed using an FEI NOVA nanoSEM field emission SEM using an Everhart-Thornley (ET) detector and a through-thelens detector (TLD). The following imaging parameters were used: 5 kV accelerating voltage, approximately 4-5 mm working distance, beam spot size of 3, 30 μm aperture, and 100-10,000× magnifications. The SEM images were analyzed using ImageJ, processing and analysis in Java (National Institutes of Health (NIH)). Several representative samples of seed crystals were obtained before and after crystal growth in the absence and presence of predissolved additive. For each sample, a total of 50 seeds were analyzed to ensure a representative sample, and the average aspect ratio of the crystals was estimated from the average length and width of the crystals.
The polymorphic form of the seed crystals after the crystal growth experiment was also confirmed to be Form II by PXRD. The average length, width, and aspect ratio of ritonavir seed crystals before and after the crystal growth experiment in the presence of the CAP Adp 0.85, Pn-IPAAmd, and CAP Adp 0.85/Pn-IPAAmd polymer combination at initial S values of 7.6 and 15.4 are summarized in Table 6.

[12] = Dynamic light scattering particle size of ritonavir during de-supersaturation; assay type: physicochemical; details: ritonavir 25 μg/mL
Description: Dynamic light scattering (DLS) was used to monitor changes in particle size as a function of time during de-supersaturation experiments. DLS experiments were performed using a Nano-Zetasizer (Nano-ZS) and its software, dispersion technology software (DTS). A 173° backscatter detector was used in order to minimize the signal from large dust particles or other large contaminants. A quartz flow-through cuvette, coupled with a pump was used for continuous sampling. […] Particle size experiments were performed in the absence and presence of pre-dissolved polymers. As an example, ritonavir was used at an initial concentration of 25 μg/mL with a polymer concentration of 50 μg/mL. The buffer solution was allowed to equilibrate at 37° C. prior to addition of solubilized ritonavir. Data collection began after generation of supersaturation. A stir-plate was used to stir the solution at a speed of 400 rpm.

[13] = cited from earlier work; remark: listed apart in the source
[14] = pH 6.8
[15] = After Crystal Growth (S = 7.6), values from ref 31 / ref 38
[16] = After Crystal Growth (S = 7.6), values from ref 31 / ref 38, listed as RTV
[17] = Before Crystal Growth, values from ref 31

Compound: C=CC(=O)O [Acrylic acid]
pKa [1]: 4.76

Compound: Oc1ccc(/C=C/c2cc(O)cc(O)c2)cc1 [Resveratrol]
crystallization tendency during production [4]: rapid crystallizer

Compound: Cc1ccc(-c2cc(C(F)(F)F)nn2-c2ccc(S(N)(=O)=O)cc2)cc1 [celecoxib]
normalized crystal growth rate of celecoxib [5]: 18.20 μg mL^−1 min^−1 m^−2
solubility thermodynamic at 48 h (physchem): 1.5 µg/mL (≈ 3.93 µM)

Compound: O=C1Nc2ccc(Cl)cc2[C@@](C#CC2CC2)(C(F)(F)F)O1 [efavirenz]
normalized crystal growth rate of efavirenz [6]: 59.32 μg mL^−1 min^−1 m^−2
solubility thermodynamic at 48 h (physchem): 8.2 µg/mL (≈ 26 µM)

Compound: Poly vinylpyrrolidone K 29/32 [PVP]
Equilibrium solubility of ritonavir in the presence of polymer (Table 7) [7]: 1.2 ± 0.05 µg/mL

Compound: Ritonavir
calculated amorphous solubility with moisture sorption correction [8]: 20.6 µg/mL
induction time of ritonavir [9]: approximately 119 minutes
initial bulk crystal growth rate of ritonavir ([10]; 100 mM sodium phosphate buffer, initial 10 μg/mL, no polymer, first 2 min): 1.56 µg/mL/min
normalized crystal growth rate of ritonavir ([10]; supersaturation ratio of 1.2): 3.94 μg mL^−1 min^−1 m^−2
aspect ratio [11]: 12.1
crystal morphology [11]: needle-like
length [11]: 50.9 ± 14.4 μm
width [11]: 4.2 ± 1.2 μm
time particle size was maintained ([12]; no polymer): ~100 min
size of ritonavir particles ([12]; polymer 50 μg/mL or none, pH 6.8, 37° C., initially formed particles): 350-450 nm
aspect ratio [13, 15]: 8.8 and 7.7
crystal morphology [13, 15]: needle-like
length [13, 15]: 50.4 ± 18.6 μm
width [13, 15]: 5.7±1.4 μm
aspect ratio [13, 16]: 8.8
width [13, 16]: 5.7 ± 1.4 μm
aspect ratio [13, 17]: 7.7
crystal morphology [13, 17]: needle-like
length [13, 17]: 44.4 ± 15.2 μm
width [13, 17]: 5.8 ± 1.9 μm
Equilibrium solubility of ritonavir, no polymer (Table 7) [7]: 1.3 ± 0.10 µg/mL

Now from value to compound, other results behind:

EA release after 24 h [2]: 7%
time of maximum EA release [2]: 2 h
maximum EA release ([2]; 25° C., EA 0.05 mg/mL): 11%
Compound: O=c1oc2c(O)c(O)cc3c(=O)oc4c(O)c(O)cc1c4c23 [EA, Ellagic Acid]
aqueous solubility ([1]; pH 7.4): 9.3 µg/mL (≈ 30.8 µM)

Que dissolution / release after 1 h [3]: 0.7%
Compound: O=c1c(O)c(-c2ccc(O)c(O)c2)oc2cc(O)cc(O)c12 [Que, Quercetin]

Equilibrium solubility of efavirenz in the presence of polymer [14]: 8.7 ± 0.07 µg/mL
Solubility of Ritonavir in the presence of polymer [14]: 1.3 ± 0.01 µg/mL
Compound: poly(N-iso-propylacrylamide) [Pn-IPAAmd]
Equilibrium solubility of ritonavir in the presence of polymer (Table 7) [7]: 1.3 ± 0.01 µg/mL
